Experimental data reported in patent US20230146870A1, “METHOD TO QUANTIFY AFFINITY AND SELECTIVITY OF SMALL MOLECULES FOR PROTEINS IN LIVING CELLS” (Ohio State Innovation Foundation, priority 2021, published 2023).
“Also recorded” adds a separate entry of the source. Read-outs that look alike come from different tables or passages of the source.

Assays:
[1] = molecular target: full-length rat PKCγ-EGFP (Rattus norvegicus, UniProt P63319); experiment: Cellular binding by flow cytometry, HEK293 cells expressing full-length PKCγ-EGFP; details: verapamil 100 μM
[2] = molecular target: mouse PKCγ-mVenus (Mus musculus, UniProt P63318); experiment: Apparent cellular Kd by flow cytometry, HEK293 cells overexpressing PKCγ-mVenus (Example 2); details: 90 min
[3] = molecular target: mouse PKCα-mVenus (Mus musculus, UniProt P20444); experiment: Apparent cellular Kd by flow cytometry, HEK293 cells overexpressing PKCα-mVenus (Example 2); details: 90 min
[4] = molecular target: T1, mouse PKCβI-mVenus (Mus musculus, UniProt P68404); experiment: Apparent cellular Kd by flow cytometry, HEK293 cells overexpressing PKCβI-mVenus (Example 2); format: binding
T1 construct: eight plasmids encoding full length mouse PKC isozymes fused to; expressed in transfected cells; host or cells: HEK293
T1 sequence (P68404 whole entry, the tested form may be a part): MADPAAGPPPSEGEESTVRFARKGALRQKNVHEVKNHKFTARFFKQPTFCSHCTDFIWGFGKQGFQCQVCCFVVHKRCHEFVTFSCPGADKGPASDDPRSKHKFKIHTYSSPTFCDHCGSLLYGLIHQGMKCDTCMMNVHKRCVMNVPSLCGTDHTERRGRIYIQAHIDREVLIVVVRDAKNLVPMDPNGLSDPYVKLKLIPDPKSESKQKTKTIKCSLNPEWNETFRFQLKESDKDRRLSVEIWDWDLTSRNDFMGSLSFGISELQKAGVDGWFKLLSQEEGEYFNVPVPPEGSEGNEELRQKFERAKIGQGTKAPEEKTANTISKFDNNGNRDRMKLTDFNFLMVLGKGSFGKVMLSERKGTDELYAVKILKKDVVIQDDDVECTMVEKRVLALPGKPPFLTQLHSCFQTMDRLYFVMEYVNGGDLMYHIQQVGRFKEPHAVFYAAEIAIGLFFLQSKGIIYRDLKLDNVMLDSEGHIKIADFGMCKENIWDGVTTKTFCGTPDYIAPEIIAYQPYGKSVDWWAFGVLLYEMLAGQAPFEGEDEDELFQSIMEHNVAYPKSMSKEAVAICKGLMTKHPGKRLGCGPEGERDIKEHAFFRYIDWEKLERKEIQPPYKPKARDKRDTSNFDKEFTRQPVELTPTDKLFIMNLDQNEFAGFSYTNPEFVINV
Description: The apparent Kd values of these fluorescent probes were measured using different PKC isozymes (e.g., PKCβI, FIGS. 20A-20D). HEK293 cells were transfected to overexpress PKCβ-mVenus and treated with probes in the presence of verapamil (100 μM) as an inhibitor of efflux.

[5] = system: Jurkat cells; experiment: Cellular viability assay, Jurkat lymphocytes, 48 h, flow cytometry (Example 2); format: cell-based; details: Homo sapiens, Jurkat, read-out: toxicity towards Jurkat cells, IC50
Description: The impact of membrane transporters on the toxicity profile of 49 was also studied.
Jurkat lymphocytes were seeded into a 96-well plate in fresh complete medium at 2.5×10^5 cells/mL and 200 μL per well. All compounds were serial diluted in DMSO and added to complete media to achieve a 1:1000 dilution factor (0.10% DMSO in each well). […] The total cell-count for each well was determined by flow cytometry and staining with propidium iodide was used to identify populations of live cells (only dead cells are stained by PI). Counts of viable cells for each treatment, determined in triplicate, were used to generate dose-response curves. These curves were fitted with non-linear regression using an inhibitor vs. response variable slope […] model (GraphPad Prism 9) to determine IC50 values.

[6] = molecular target: T2, rat EGFP-N2-PKCγ (Rattus norvegicus, UniProt P63319); experiment: Confocal video microscopy of PKCγ trafficking in HEK293 cells; format: cell-based; details: 33 at 1 μM, after 10 min
T2 construct: transiently transfected with DNA encoding the full-length rat PKCγ-EGFP; host or cells: HEK293
From the text: Blue fluorescence of 33 is shown in the right panels (Ex. 405 nm, Em. 410-495 nm, Gain 50), green fluorescence of transiently transfected EGFP-N2-PKCγ protein is shown in the middle panels (Ex. 488 nm, Em. 500-650 nm, Gain 700), and DIC images are shown in the left panels. Trafficking of PKCγ-mEGFP protein to membranes induced by 33 can be observed Images were acquired with a Leica SP8 microscope (63× objective). Scale bar=25 μm.
It appears that this is due to efflux of this compound from cells mediated by efflux transporters such as Pgp. To explore this idea, two-color confocal video microscopy was used. Briefly, HEK293 cells were transiently transfected with commercially available plasmid DNA encoding rat PKCγ fused to GFP (EGFP-N2-PKCγ, Addgene Plasmid #21204).^84 The HEK293 cell line is known to expresses multiple efflux transporters including Pgp (MDR1/ABCB1).^85 The fluorescence of GFP was monitored by excitation with a 488 nm laser and emission collected between 500-650 nm. […] In addition, the cell morphology was recorded using differential interference contrast microscopy (DIC). The localization of the fluorescent probe and the GFP fusion protein was recorded using video confocal microscopy immediately after treatment of transfected cells with 33. […]

[7] = molecular target: C1 domain of human PKD (purified C1AB domain) (Homo sapiens, UniProt Q15139); experiment: [3H]PDBu competition assay with purified C1AB domain of PKD; format: binding
Chain of C1 domain of human PKD (purified C1AB domain) (Q15139 whole entry, the tested form may be a part): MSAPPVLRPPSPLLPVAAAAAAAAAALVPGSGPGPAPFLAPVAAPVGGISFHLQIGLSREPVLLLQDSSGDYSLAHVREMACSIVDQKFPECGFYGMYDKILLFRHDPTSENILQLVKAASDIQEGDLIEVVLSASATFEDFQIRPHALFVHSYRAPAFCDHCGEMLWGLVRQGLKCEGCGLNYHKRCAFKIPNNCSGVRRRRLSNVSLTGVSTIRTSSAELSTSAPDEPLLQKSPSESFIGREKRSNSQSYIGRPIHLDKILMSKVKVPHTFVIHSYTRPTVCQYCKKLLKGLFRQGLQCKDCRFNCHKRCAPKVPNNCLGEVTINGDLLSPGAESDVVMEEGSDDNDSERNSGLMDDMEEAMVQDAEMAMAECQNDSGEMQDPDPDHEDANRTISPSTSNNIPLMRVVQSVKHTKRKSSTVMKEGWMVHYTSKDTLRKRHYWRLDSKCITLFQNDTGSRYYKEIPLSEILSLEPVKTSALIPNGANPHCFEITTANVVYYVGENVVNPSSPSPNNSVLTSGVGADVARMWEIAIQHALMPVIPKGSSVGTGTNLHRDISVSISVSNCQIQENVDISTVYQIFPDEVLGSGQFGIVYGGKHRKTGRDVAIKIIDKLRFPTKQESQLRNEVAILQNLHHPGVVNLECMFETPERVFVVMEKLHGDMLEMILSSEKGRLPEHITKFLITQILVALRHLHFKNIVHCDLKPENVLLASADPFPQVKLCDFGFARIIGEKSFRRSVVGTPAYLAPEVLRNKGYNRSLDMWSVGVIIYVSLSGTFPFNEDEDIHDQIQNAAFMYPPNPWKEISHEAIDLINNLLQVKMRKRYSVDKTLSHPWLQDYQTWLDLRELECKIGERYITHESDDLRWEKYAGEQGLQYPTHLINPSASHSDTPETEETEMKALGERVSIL
Description: Affinities were measured with a radioactive […]
The results of the biochemical binding assays with cellular binding assays were used to quantitatively investigate differences between conventional biochemical measurements of Ki values with this novel method for determination of Ki values in cellule.

[8] = system: HEK293 cells; experiment: Viability of HEK293 cells during probe treatment by flow cytometry; format: cell-based; details: 33 at 1 μM, verapamil 0, 25 or 100 μM, 1 h
Description: FIGS. 14A and 14B show quantification of fluorescence (FIG. 14A) and viability (FIG. 14B) upon treatment of HEK293 cells with compound 33 (1 μM) and verapamil (0, 25 or 100 μM) for 1 h. Total [DMSO]=0.2%. Error bars represent SD (N=3). Statistical significance analyzed by one-way ANOVA (GraphPad Prism 9). **, P<0.01; ****, P<0.0001. Samples were analyzed with a Beckman Coulter Cytoflex flow cytometer. (Ex. 405 nm/Em. […]). […] Compound 33 is non-toxic under these conditions.
FIGS. 16A-16D show quantification of non-specific binding and cell viability after treatment for 1 h at 37° C. with compound 33 (2-fold serial dilution from 5 μM) and verapamil (75 μM) in the presence of different competitors (PMA or non-fluorescent PB-carbamate 8, at 0, 5 and 10 μM). Total [DMSO]=0.3%. (FIG. 16A) Parental HEK293 cells analyzed after treatment with 33 in the presence or absence of PMA or compound 8. […] Samples were analyzed with a Beckman Coulter Cytoflex flow cytometer and gated to analyze living cells (Ex. 405 nm; Em. 450/45 nm).
The efflux of this fluorescent probe was next studied by flow cytometry. […] The blue fluorescent signal (405 nm laser) of HEK293 cells overexpressing green fluorescent full-length PKCγ-EGFP was elucidated (the median protein concentration was determined to be ˜5.0 μM as measured by flow cytometry by comparison with Spherotech rainbow bead standards as described herein). […]

[9] = molecular target: T3, C1A-C1A-EYFP (PKCγ) (UniProt P63319); experiment: Cellular binding by flow cytometry, HEK293 cells expressing C1A-C1A-EYFP (PKCγ); details: verapamil 100 μM
T3 construct: apparent Kd; other: verapamil 100 μM, 90 min, 37° C., DMEM high glucose, 4% FBS; half time (t1/2) of cellular fluorescence; other: 33 at 5 μM, verapamil 100 μM, room temperature; fused on or other part: EYFP at the C-terminus; the C1A module is present twice in one chain
From the text: The dissociation constant can be defined as the ratio of koff divided by kon. This value is also the concentration where the ligand occupies 50% of the receptor.^94 Kd is only meaningful when equilibrium is reached, where the ligand-receptor complex is formed at the same rate as it dissociates into free ligand and receptor (FIG. 15). This binding equilibrium is established when essentially no further change in the amount of bound complex is observed over time. To evaluate the time needed for equilibration, we treated HEK293 cells that overexpress C1A-C1A-EYFP (PKCγ) with 33 (0 and 5 μM) in the presence or absence of verapamil (100 μM) and cellular fluorescence was measured by flow cytometry as a function of time (FIG. 18A). […] This optimization was used to establish a 90 min equilibration period for further assay optimization.
The presence of fetal bovine serum (FBS) in the culture media also influenced the binding by sequestering the free ligand. The assay conditions were finalized using HEK293 cells incubated with the probe in the presence of verapamil for 90 min at 37° C. in DMEM media (high glucose, 4% FBS).

Compound	total binding fluorescence vs non-specific binding [1]	specific binding to PKCγ-mVenus [2]	specific binding to PKCα-mVenus [3]	specific binding to PKCβI-mVenus ([4]; 90 min)	IC50 [5]	trafficking of PKCγ [6]	Ki ([7]; Ki for purified C1AB domain of PKD)	Ki ([7]; read-out: Ki for purified C1AB domain of PKD)	Kd [4]	toxicity to HEK293 cells [8]	half time (t1/2) of cellular fluorescence ([9]; 33 at 5 μM, room temperature)	Kd ([9]; 90 min, 37° C., DMEM high glucose, 4% FBS, read-out: apparent Kd)
CC1=C[C@H]2[C@@]3(O)[C@H](C)[C@@H](O)[C@]4(OC(=O)N(C)CCCCCCCCCCCCN(C)C(=O)c5cc6ccc(O)cc6oc5=O)[C@H]([C@@H]3C=C(CO)C[C@]2(O)C1=O)C4(C)C [probe 34, (1aR,1bS,4aR,7aS,7bS,8R,9R,9aS)-4a,7b,9-trihydroxy-3-(hydroxymethyl)-1,1,6,8-tetramethyl-5-oxo-1,1a,1b,4,4a,5,7a,7b,8,9-decahydro-9aH-cyclopropa[3,4]benzo[1,2-e]azulen-9a-yl (12-(7-hydroxy-N-methyl-2-oxo-2H-chromene-3-carboxamido)dodecyl)(methyl)carbamate]	identical or lower than the non-specific binding value	no specific binding	no specific binding	not measurable	–	–	–	–	–	–	–	–
CC1=C[C@H]2[C@@]3(O)[C@H](C)[C@@H](O)[C@]4(OC(=O)N(C)CCCCCCCCCCCCN(C)C(=O)c5cc6cc(F)c(O)c(F)c6oc5=O)[C@H]([C@@H]3C=C(CO)C[C@]2(O)C1=O)C4(C)C [probe 33, (1aR,1bS,4aR,7aS,7bS,8R,9R,9aS)-4a,7b,9-trihydroxy-3-(hydroxymethyl)-1,1,6,8-tetramethyl-5-oxo-1,1a,1b,4,4a,5,7a,7b,8,9-decahydro-9aH-cyclopropa[3,4]benzo[1,2-e]azulen-9a-yl (12-(6,8-difluoro-7-hydroxy-N-methyl-2-oxo-2H-chromene-3-carboxamido)dodecyl)(methyl)carbamate]	–	–	–	–	~12000 nM	translocation of PKCγ to the plasma membrane	30 nM	~30 nM	2700 nM	non-toxic; also recorded: no toxicity	about 32 min	6400 nM
